Entries after “also recorded” stand apart in the source; their conditions may differ.

Data on 15 compounds can be found in paper PMC9585939, “Unveiling a family of spiro-β-lactams with anti-HIV and antiplasmodial activity via phosphine-catalyzed [3+2] annulation of 6-alkylidene-penicillanates and allenoates” (Frontiers in Chemistry, 2022).

The nature of data set [1]: Cellular viability assay (alamarBlue) in TZM-bl cells. The data set is classed as cell-based. To be noted: human, 50% cytotoxic concentration. The method, then: Before the antiviral activity screening, all spirocyclopentene-β-lactams were assayed for their in vitro cytotoxic activity (CC50) in TZM-bl cells (Table 4).
TZM-bl cells (AIDS Research and Reference Reagent Program, National Institutes of Health, United States) were cultured in complete growth medium consisting of Dulbecco’s Minimal Essential Medium (DMEM) supplemented with 10% fetal bovine serum (FBS), 100 U/ml of penicillin–streptomycin (Gibco/Invitrogen, United States), 1 mM of sodium pyruvate (Gibco/Invitrogen, United States), 2 mM of L-glutamine (Gibco/Invitrogen, United States), and 1 mM of non-essential amino acids (Gibco/Invitrogen, United States). Cell cultures were maintained at 37°C in 5% CO2.
The in vitro cytotoxicity of test compounds was evaluated in TZM-bl cells using alamarBlue cell viability reagent (Life Technologies, United States), according to the instructions of the manufacturer. The cells were cultured in the presence and absence of serial-fold dilutions of the test compounds. Each dilution of each compound was performed in triplicate wells. Medium controls (only growth medium), cell controls (cells without test compound), and cytotoxicity controls (a compound that kills cells) were employed in each assay.
Background: Alamar Blue is a resazurin reagent that responds to reducing activity.

The test system of data set [2] is HIV-1 SG3.1. Description: microbe, parasite or virus in culture. The settings on record: for anti-HIV activity (in words) / Therapeutic index (CC50/IC50): HIV-1; for inhibition at 25 µg/mL / IC50 / IC90: Human immunodeficiency virus 1, TZM-bl; for inhibition at 25 µg/mL: read-out: MPI (%) 25 μg/mL; for Therapeutic index (CC50/IC50): CC50 in TZM-bl cells; for IC50 / IC90: 48 h; for IC50: read-out: IC50 HIV-1, TZM-bl cells, 48 h; for IC90: read-out: IC90 HIV-1. The source says:
The HIV-1 SG3.1 is a reference subtype B strain that uses the CXCR4 coreceptor. It was obtained by transfection of HEK293T cells with pSG3.1 plasmid using jetPRIME transfection reagent (Polyplus-transfection SA, Illkirch, France), according to the instructions of the manufacturer.
Briefly, TZM-bl cells were infected with 200 TCID50 of HIV-1 or HIV-2 in the presence of serial-fold dilutions of the compounds in the growth medium, supplemented with diethylaminoethyl-dextran (DEAE-dextran). After 48 h of infection, luciferase expression was quantified with Pierce Firefly Luc One-Step Glow Assay Kit (ThermoFisher Scientific, Rockford, United States), according to the instructions of the manufacturer. For each compound dilution, the assay was set up in triplicate wells. Virus controls, cell controls, and inhibitors controls (drugs with a known action against each virus) were employed.

The term CC50 denotes the concentration that lowers cell viability or growth by half. Higher therefore signals lower toxicity to the cells. In general, melting point refers to the temperature, or range, at which the solid turns liquid. With `CC1(C)SC2N(C(=O)C23CC=C(C(=O)Oc2ccccc2)C3C(=O)c2ccccc2)C1C(=O)OC(c1ccccc1)c1ccccc1` (stereo not drawn) [Compound 9a, (1′R,2′R)-Benzhydryl spiro[(2-benzoyl-3-phenoxycarbonylcyclopent-3-ene)-1′,6-penicillanate]], the melting point is > 137 °C (dec.). Further, the midpoint of cytotoxicity in data set [1], the CC50, lay at 215 µM. In data set [2], the “anti-HIV activity (in words)” value is given as “lack of antiviral activity” and the inhibition at 25 µg/mL was 0%.
`CC(C)(C)c1ccc(OC(=O)C2=CCC3(C(=O)N4C(C(=O)OC(c5ccccc5)c5ccccc5)C(C)(C)SC43)C2C(=O)c2ccccc2)cc1` (stereo not shown) [Compound 9b, (1’R,2’R)-Benzhydryl spiro[(2-benzoyl-3-(4-tert-butylphenoxycarbonyl)cyclopent-3-ene)-1’,6-penicillanate]] registered a melting point of 206.7 to 208.9 °C. Also, it took 54.7 µM to reach half-maximal cytotoxicity in data set [1] (CC50). In data set [2], the inhibition at 25 µg/mL was 0%.
On the same counts, the results for `COc1cccc(OC(=O)C2=CCC3(C(=O)N4C(C(=O)OC(c5ccccc5)c5ccccc5)C(C)(C)SC43)C2C(=O)c2ccccc2)c1` (stereo not shown) [Compound 9c, (1’R,2’R)-Benzhydryl spiro[(2-benzoyl-3-(3-methoxyphenoxycarbonyl)cyclopent-3-ene)-1’,6-penicillanate]] are 67.8 to 69.7 °C, 58.1 µM and 0%.
Take `CC1(C)SC2N(C(=O)C23CC=C(C(=O)Oc2ccc4ccccc4c2)C3C(=O)c2ccccc2)C1C(=O)OC(c1ccccc1)c1ccccc1` (stereo not shown) [Compound 9d, (1’R,2’R)-Benzhydryl spiro[(2-benzoyl-3-(2-naphthoxycarbonyl)cyclopent-3-ene)-1’,6-penicillanate]]: the CC50 in data set [1] was 38 µM. Besides, the inhibition at 25 µg/mL in data set [2] came out at 54%.
For `CCCCCOC(=O)C1=CCC2(C(=O)N3C(C(=O)OC(c4ccccc4)c4ccccc4)C(C)(C)SC32)C1C(=O)c1ccccc1` (stereo not shown) [Compound 9e, (1’R,2’R)-Benzhydryl spiro[(2-benzoyl-3-pentoxycarbonylcyclopent-3-ene)-1’,6-penicillanate]] the same measures were 60.3 µM and 44%.
On to `CC(C)CCOC(=O)C1=CCC2(C(=O)N3C(C(=O)OC(c4ccccc4)c4ccccc4)C(C)(C)SC32)C1C(=O)c1ccccc1` (stereo not shown) [Compound 9f, (1’R,2’R)-Benzhydryl spiro[(2-benzoyl-3-isopentoxycarbonylcyclopent-3-ene)-1’,6-penicillanate]], for which the CC50 in data set [1] amounted to 53.4 µM. Moreover, the inhibition at 25 µg/mL in data set [2] was found to be 21%.
As for `CC1(C)SC2N(C(=O)C23CC=C(C(=O)OC(c2ccccc2)c2ccccc2)C3C(=O)c2ccccc2)C1C(=O)OC(c1ccccc1)c1ccccc1` (stereo not shown) [Compound 9g, (1’R,2’R)-Benzhydryl spiro[(2-benzoyl-3-benzhydryloxycarbonylcyclopent-3-ene)-1’,6-penicillanate]], the melting point was 83.4 to 85.2 °C. Also, the CC50 in data set [1] was 45.3 µM. In addition, in data set [2], the inhibition at 25 µg/mL was 0%.
Regarding `CC1(C)SC2N(C(=O)C23CC=C(C(=O)OCc2ccc([N+](=O)[O-])cc2)C3C(=O)c2ccccc2)C1C(=O)OC(c1ccccc1)c1ccccc1` (stereo not shown) [Compound 9h, (1’R,2’R)-Benzhydryl spiro[(2-benzoyl-3-(4-nitrobenzyloxycarbonyl)cyclopent-3-ene)-1’,6-penicillanate]], the melting point is 81.2 to 83.1 °C. In addition, in data set [1], it took 56 µM to reach half-maximal cytotoxicity (CC50). For the same compound, in data set [2], the “anti-HIV activity (in words)” value was “inactive; also recorded: total loss of antiviral activity” and the inhibition at 25 µg/mL amounted to 0%.
A word on the IC50: it is the midpoint of a concentration-inhibition curve. By IC90 is commonly meant the point of the concentration-response curve where the effect stands at 90%. `Cc1ccc(COC(=O)C2=CCC3(C(=O)N4C(C(=O)OC(c5ccccc5)c5ccccc5)C(C)(C)SC43)C2C(=O)c2ccccc2)cc1` (stereo not shown) [Compound 9j, (1’R,2’R)-Benzhydryl spiro[(2-benzoyl-3-(4-methylbenzyloxycarbonyl)cyclopent-3-ene)-1’,6-penicillanate]] yielded a melting point of 59 to 60.8 °C. The CC50 in data set [1] is 60 µM. For the same compound, in data set [2], the “Therapeutic index (CC50/IC50)” value is given as 674.49, the IC50 came out at 89 nM, the IC90 was 209 nM and the inhibition at 25 µg/mL stood at 93%.
For the compound `CC1(C)SC2N(C(=O)C23CC=C(C(=O)OCc2ccc(Cl)cc2)C3C(=O)c2ccccc2)C1C(=O)OC(c1ccccc1)c1ccccc1` (stereo not shown) [Compound 9k, (1’R,2’R)-Benzhydryl spiro[(2-benzoyl-3-(4-chlorobenzyloxycarbonyl)cyclopent-3-ene)-1’,6-penicillanate]], the melting point lay within 49.8 to 51.5 °C. In data set [1], this compound gave a CC50 of 54.1 µM. In data set [2], the “Therapeutic index (CC50/IC50)” value is 148.11, the IC50 was 366 nM and the inhibition at 25 µg/mL was found to be 84%.
`CC1(C)SC2N(C(=O)C23CC=C(C(=O)OCc2ccc(F)cc2)C3C(=O)c2ccccc2)C1C(=O)OC(c1ccccc1)c1ccccc1` (stereo not shown) [Compound 9l, (1’R,2’R)-Benzhydryl spiro[(2-benzoyl-3-(4-fluorobenzyloxycarbonyl)cyclopent-3-ene)-1’,6-penicillanate]]: the melting point lay within 67.2 to 69.3 °C. The compound also displayed a CC50 in data set [1] of 55.8 µM. In data set [2], the “Therapeutic index (CC50/IC50)” value was found to be 502.97, the IC50 was found to be 111 nM, the IC90 is 221 nM and the inhibition at 25 µg/mL turned out to be 100%.
The compound `C#CCOC(=O)C1=CCC2(C(=O)N3C(C(=O)OC(c4ccccc4)c4ccccc4)C(C)(C)SC32)C1C(=O)c1ccccc1` (stereo not shown) [Compound 9m, (1’R,2’R)-Benzhydryl spiro[(2-benzoyl-3-(prop-2-yn-1-yloxycarbonyl)cyclopent-3-ene)-1’,6-penicillanate]] gave a melting point of 62.2 to 64.8 °C. This compound gave a CC50 in data set [1] of 60.1 µM. Besides, in data set [2], the “Therapeutic index (CC50/IC50)” value was 296.11, the IC50 was 203 nM, the IC90 was 437 nM and the inhibition at 25 µg/mL is 94%.
Compound `CC(COC(=O)C1=CCC2(C(=O)N3C(C(=O)OC(c4ccccc4)c4ccccc4)C(C)(C)SC32)C1C(=O)c1ccccc1)c1ccccc1` (stereo not shown) [Compound 9o, (1’R,2’R)-Benzhydryl spiro[(2-benzoyl-3-(1-phenylpropan-2-yloxycarbonyl)cyclopent-3-ene)-1’,6-penicillanate]] displayed a CC50 in data set [1] of 44.7 µM. The inhibition at 25 µg/mL in data set [2] stood at 0%.
Consider `CC1(C)SC2N(C(=O)C23CC=C(C(=O)OCc2ccccc2)C3C(=O)c2ccc(Cl)cc2)C1C(=O)OC(c1ccccc1)c1ccccc1` (stereo not shown) [Compound 12b, (1’R,2’R)-Benzhydryl spiro[(2-(4-chlorobenzoyl)-3-benzyloxycarbonylcyclopent-3-ene)-1’,6-penicillanate]], for which the melting point lay in the range of 145.2 to 146.5 °C. Besides, in data set [1], the CC50 came to 56 µM. In data set [2], the “Therapeutic index (CC50/IC50)” value amounted to 888.73, the IC50 amounted to 63 nM, the IC90 came out at 104 nM and the inhibition at 25 µg/mL is 92%.
Take `Cc1ccc(COC(=O)C2=CCC3(C(=O)N4C(C(=O)OC(c5ccccc5)c5ccccc5)C(C)(C)SC43)C2C(=O)c2ccc(F)cc2)cc1` (stereo not shown) [Compound 14b, (1’R,2’R)-Benzhydryl spiro[(2-(4-fluorobenzoyl)-3-(4-methylbenzyloxycarbonyl)cyclopent-3-ene)-1’,6-penicillanate]]: the CC50 in data set [1] stood at 78.3 µM. In addition, in data set [2], the 50% inhibitory concentration (IC50) amounted to 146 nM, the concentration for an effect of 90% (IC90) was 338 nM and the inhibition at 25 µg/mL stood at 95%.
